The format of this experiment is in vivo, rat. The method, then: Distilled water and saline were administered as vehicle to rats in each control group. […] Plasma cytokine levels were measured by ELISA or multiplex immunoassay; common metabolites and lipid mediators were analyzed by GC-MS/MS and LC-MS/MS, respectively.
Pathway maps of lipid mediators were created by using CellDesigner 4.4 software (http://www.celldesigner.org). We evaluated the effects of the treatments on specific lipid mediators and categorized them according to COX, CYP and LOX pathways by Fisher’s exact test. The proinflammatory and anti-inflammatory indices were analyzed as described by Tam et al. with modification.[22]

[1] abbreviates: PM/P (polyI:C+maoto vs polyI:C), 2h.
Where [2] appears, read: PM/P (polyI:C+maoto vs polyI:C), 4h.
The mark [3] stands for this setting: first value of an incomplete line, time (2h or 4h) not assignable.

Results on 20 compounds are retold here after publication PMC5654968 (NPJ Systems Biology and Applications, 2017).

Where two headings read alike, the source gives them in different places.

`CCCCC/C=C\CC(O)C(O)C/C=C\C/C=C\CCCC(=O)O` (stereo not shown) [11,12-DHET]: the “log2FC of plasma level” value is, setting by setting: (M/C (maoto vs control), 2h) 0.90; (M/C (maoto vs control), 4h) 0.13; (P/C (polyI:C vs control), 2h) -0.15; (P/C (polyI:C vs control), 4h) 0.23; under setting [1], 0.19; under setting [2], -0.31.

Regarding `CCCCC/C=C\C[C@H]1O[C@H]1C/C=C\C/C=C\CCCC(=O)O` [11,12-EET], the “log2FC of plasma level” value is, setting by setting: (M/C (maoto vs control), 2h) -0.50; (M/C (maoto vs control), 4h) -0.33; (P/C (polyI:C vs control), 2h) -0.22; (P/C (polyI:C vs control), 4h) 0.37; under setting [1], -0.13; under setting [2], -0.59.

As for `CC/C=C\C/C=C\C/C=C\CC(O)/C=C/C=C\C/C=C\CCC(=O)O` (stereo not shown) [11-HDoHE], the “log2FC of plasma level” value (M/C (maoto vs control), 2h) was 0.35; the “log2FC of plasma level” value (M/C (maoto vs control), 4h) is on record as -0.42; the “log2FC of plasma level” value (P/C (polyI:C vs control), 2h) is given as 0.05; the “log2FC of plasma level” value (P/C (polyI:C vs control), 4h) was determined as 0.13; the “log2FC of plasma level” value under setting [1] turned out to be 0.03; the “log2FC of plasma level” value under setting [2] is recorded as -0.58.

In the case of `CCCCC/C=C\C=C\C(O)C/C=C\C/C=C\CCCC(=O)O` (stereo not shown) [11-HETE], the “log2FC of plasma level” value (M/C (maoto vs control), 2h) came out at 0.15; the “log2FC of plasma level” value (M/C (maoto vs control), 4h) is listed as -0.41; the “log2FC of plasma level” value (P/C (polyI:C vs control), 2h) is on record as 0.23; the “log2FC of plasma level” value (P/C (polyI:C vs control), 4h) is given as 0.38; the “log2FC of plasma level” value under setting [1] came out at 0.04; the “log2FC of plasma level” value under setting [2] is -0.66.

Take `CCCCCC(O)C(O)C/C=C\CCCCCCCC(=O)O` (stereo not shown) [12,13-DiHOME]: the “log2FC of plasma level” value (M/C (maoto vs control), 2h) is reported as 0.57; the “log2FC of plasma level” value (M/C (maoto vs control), 4h) is -0.31; the “log2FC of plasma level” value (P/C (polyI:C vs control), 2h) was determined as 0.25; the “log2FC of plasma level” value (P/C (polyI:C vs control), 4h) worked out at 0.12; the “log2FC of plasma level” value under setting [1] worked out at 0.26; the “log2FC of plasma level” value under setting [2] is recorded as -0.28.

Turning to `CC/C=C\C/C=C\CC(O)/C=C/C=C\C/C=C\CCCC(=O)O` (stereo not shown) [12-HEPE], the “log2FC of plasma level” value (M/C (maoto vs control), 2h) was determined as 1.09; the “log2FC of plasma level” value (M/C (maoto vs control), 4h) is reported as -0.37; the “log2FC of plasma level” value (P/C (polyI:C vs control), 2h) is given as -0.06; the “log2FC of plasma level” value (P/C (polyI:C vs control), 4h) was found to be 0.02; the “log2FC of plasma level” value under setting [1] is given as 0.67; the “log2FC of plasma level” value under setting [2] was -0.27.

With `CCCCC/C=C\C[C@H](O)/C=C/C=C\C/C=C\CCCC(=O)O` [12-HETE], the “log2FC of plasma level” value was 1.25 (M/C (maoto vs control), 2h); -0.38 (M/C (maoto vs control), 4h); -0.61 (P/C (polyI:C vs control), 2h); 0.37 (P/C (polyI:C vs control), 4h); 1.33 under setting [1]; -0.36 under setting [2].

Take `CCCCCC(O)/C=C/C=C/C/C=C/CCCC(=O)O` (stereo not shown) [12-HHT]: the “log2FC of plasma level” value runs as follows: (M/C (maoto vs control), 2h) 0.48; (M/C (maoto vs control), 4h) -0.39; (P/C (polyI:C vs control), 2h) 0.33; (P/C (polyI:C vs control), 4h) 1.13; under setting [1], -0.01; under setting [2], -1.45.

As to `CCCCC/C=C\CC(=O)/C=C/C=C\C/C=C\CCCC(=O)O` [12-KETE], the “log2FC of plasma level” value reads like this: (M/C (maoto vs control), 2h) 0.74; (M/C (maoto vs control), 4h) -1.34; (P/C (polyI:C vs control), 2h) -0.45; (P/C (polyI:C vs control), 4h) 0.53; under setting [1], 0.54; under setting [2], -1.45.

For `CCCCCC(=O)CCC1C(=O)CC(O)C1C/C=C\CCCC(=O)O` (stereo not shown) [13,14-dihydro-15-keto-PGD2], the “log2FC of plasma level” value is -0.34. Further, under setting [3], the “log2FC of plasma level” value is recorded as 0.70.

With `CCCCCC(=O)CC[C@H]1[C@H](O)CC(=O)[C@@H]1C/C=C\CCCC(=O)O` [13,14-dihydro-15-keto-PGE2], the “log2FC of plasma level” value is 0.22 (M/C (maoto vs control), 2h); 0.13 (M/C (maoto vs control), 4h); 1.01 (P/C (polyI:C vs control), 2h); 0.22 (P/C (polyI:C vs control), 4h); -0.04 under setting [1]; 0.42 under setting [2].

Regarding `CCCCCC(=O)CC[C@@H]1[C@@H](C/C=C\CCCC(=O)O)[C@@H](O)C[C@H]1O` [13,14-dihydro-15-keto-PGF2α], the “log2FC of plasma level” value was 0.41 (M/C (maoto vs control), 2h); -0.29 (M/C (maoto vs control), 4h); 0.56 (P/C (polyI:C vs control), 2h); -0.30 (P/C (polyI:C vs control), 4h); 0.05 under setting [1]; 0.38 under setting [2].

For `CCCCCC(=O)CCC1C(O)CC(=O)C1CCC(=O)O` (stereo not shown) [13,14-dihydro-15-keto-tetranor-PGE2], the “log2FC of plasma level” value reads like this: (M/C (maoto vs control), 2h) 0.05; (M/C (maoto vs control), 4h) -0.80; (P/C (polyI:C vs control), 2h) 2.37; (P/C (polyI:C vs control), 4h) 2.09; under setting [1], -0.40; under setting [2], -2.03.

With `CCCCCC(=O)CCC1C(O)CC(O)C1CCC(=O)O` (stereo not drawn) [13,14-dihydro-15-keto-tetranor-PGF1α], the “log2FC of plasma level” value was 0.16. Under setting [3], the “log2FC of plasma level” value was determined as 0.18.

Take `CCCCCC(=O)CCC1C(O)CC(O)C1CCC(=O)O` (stereo not drawn) [13,14-dihydro-15-keto-tetranor-PGF1β]: the “log2FC of plasma level” value (M/C (maoto vs control), 2h) came out at 0.11; the “log2FC of plasma level” value (M/C (maoto vs control), 4h) turned out to be 0.40; the “log2FC of plasma level” value (P/C (polyI:C vs control), 2h) is given as 0.93; the “log2FC of plasma level” value (P/C (polyI:C vs control), 4h) stood at 0.27; the “log2FC of plasma level” value under setting [1] was determined as 0.11; the “log2FC of plasma level” value under setting [2] was -0.01.

On to `CC/C=C\C/C=C\C=C\C(O)C/C=C\C/C=C\C/C=C\CCC(=O)O` (stereo not shown) [13-HDoHE], for which the “log2FC of plasma level” value reads like this: (M/C (maoto vs control), 2h) 0.03; (M/C (maoto vs control), 4h) -0.44; (P/C (polyI:C vs control), 2h) 0.01; (P/C (polyI:C vs control), 4h) 0.18; under setting [1], -0.06; under setting [2], -0.62.

As to `CCCCCC(O)/C=C/C=C\CCCCCCCC(=O)O` (stereo not shown) [13-HODE], the “log2FC of plasma level” value (M/C (maoto vs control), 2h) was determined as 0.14; the “log2FC of plasma level” value (M/C (maoto vs control), 4h) is recorded as -0.46; the “log2FC of plasma level” value (P/C (polyI:C vs control), 2h) was 0.15; the “log2FC of plasma level” value (P/C (polyI:C vs control), 4h) stood at 0.36; the “log2FC of plasma level” value under setting [1] is listed as -0.11; the “log2FC of plasma level” value under setting [2] is -0.80.

As to `CC/C=C\CC(O)/C=C/C=C\CCCCCCCC(=O)O` (stereo not shown) [13-HOTrE], the “log2FC of plasma level” value is, setting by setting: (M/C (maoto vs control), 2h) 0.23; (M/C (maoto vs control), 4h) -0.43; (P/C (polyI:C vs control), 2h) 0.16; (P/C (polyI:C vs control), 4h) 0.11; under setting [1], -0.20; under setting [2], -0.60.

With `CCCCC[C@@H](/C=C/C=C\CCCCCCCC(=O)O)OO` [13-HpODE], the “log2FC of plasma level” value (M/C (maoto vs control), 2h) came to 2.37; the “log2FC of plasma level” value (M/C (maoto vs control), 4h) was -2.47; the “log2FC of plasma level” value (P/C (polyI:C vs control), 2h) was 0.75; the “log2FC of plasma level” value (P/C (polyI:C vs control), 4h) is listed as 0.25; the “log2FC of plasma level” value under setting [1] is listed as -0.76; the “log2FC of plasma level” value under setting [2] is recorded as -1.63.

For `CCCCCC(=O)/C=C/C=C\CCCCCCCC(=O)O` [13-KODE], the “log2FC of plasma level” value by setting is: (M/C (maoto vs control), 2h) 0.39; (M/C (maoto vs control), 4h) -1.68; (P/C (polyI:C vs control), 2h) -0.08; (P/C (polyI:C vs control), 4h) 0.50; under setting [1], -0.15; under setting [2], -1.45.
